Experimental data: patent US20240150377A1, “MODULATORS OF CYSTIC FIBROSIS TRANSMEMBRANE CONDUCTANCE REGULATOR” (VERTEX PHARMACEUTICALS INCORPORATED, priority 2020, published 2024)

Target: T1, CFTR (Homo sapiens, UniProt P13569, DEL508-508)
T1 construct: endogenous in cells; host or cells: primary human bronchial epithelial cells from CF subjects (F508del/MF-HBE), differentiated at air-liquid interface
Test: HBE2 assay: Ussing chamber assay of CFTR-mediated short-circuit currents
Assay type: cell-based
Conditions: F508del/MF-HBE cells, 18-24 hours, 20% human serum; for Emax: read-out: HBE2 Max activity (%)
Summary of the method: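 F508del/MF-HBE cultured >14 days at air-liquid interface, mounted in Ussing chambers; transepithelial short-circuit current recorded under voltage clamp (Vhold=0 mV) at 37 °C. CFTR-mediated ISC (μA/cm^2) taken as peak forskolin response relative to steady-state current after inhibition; corrector activity assessed this way.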

[1] = 3 μM corrector, with 44 nM potentiator

T1 sequence (P13569 with tags, fused parts or gaps DEL508-508): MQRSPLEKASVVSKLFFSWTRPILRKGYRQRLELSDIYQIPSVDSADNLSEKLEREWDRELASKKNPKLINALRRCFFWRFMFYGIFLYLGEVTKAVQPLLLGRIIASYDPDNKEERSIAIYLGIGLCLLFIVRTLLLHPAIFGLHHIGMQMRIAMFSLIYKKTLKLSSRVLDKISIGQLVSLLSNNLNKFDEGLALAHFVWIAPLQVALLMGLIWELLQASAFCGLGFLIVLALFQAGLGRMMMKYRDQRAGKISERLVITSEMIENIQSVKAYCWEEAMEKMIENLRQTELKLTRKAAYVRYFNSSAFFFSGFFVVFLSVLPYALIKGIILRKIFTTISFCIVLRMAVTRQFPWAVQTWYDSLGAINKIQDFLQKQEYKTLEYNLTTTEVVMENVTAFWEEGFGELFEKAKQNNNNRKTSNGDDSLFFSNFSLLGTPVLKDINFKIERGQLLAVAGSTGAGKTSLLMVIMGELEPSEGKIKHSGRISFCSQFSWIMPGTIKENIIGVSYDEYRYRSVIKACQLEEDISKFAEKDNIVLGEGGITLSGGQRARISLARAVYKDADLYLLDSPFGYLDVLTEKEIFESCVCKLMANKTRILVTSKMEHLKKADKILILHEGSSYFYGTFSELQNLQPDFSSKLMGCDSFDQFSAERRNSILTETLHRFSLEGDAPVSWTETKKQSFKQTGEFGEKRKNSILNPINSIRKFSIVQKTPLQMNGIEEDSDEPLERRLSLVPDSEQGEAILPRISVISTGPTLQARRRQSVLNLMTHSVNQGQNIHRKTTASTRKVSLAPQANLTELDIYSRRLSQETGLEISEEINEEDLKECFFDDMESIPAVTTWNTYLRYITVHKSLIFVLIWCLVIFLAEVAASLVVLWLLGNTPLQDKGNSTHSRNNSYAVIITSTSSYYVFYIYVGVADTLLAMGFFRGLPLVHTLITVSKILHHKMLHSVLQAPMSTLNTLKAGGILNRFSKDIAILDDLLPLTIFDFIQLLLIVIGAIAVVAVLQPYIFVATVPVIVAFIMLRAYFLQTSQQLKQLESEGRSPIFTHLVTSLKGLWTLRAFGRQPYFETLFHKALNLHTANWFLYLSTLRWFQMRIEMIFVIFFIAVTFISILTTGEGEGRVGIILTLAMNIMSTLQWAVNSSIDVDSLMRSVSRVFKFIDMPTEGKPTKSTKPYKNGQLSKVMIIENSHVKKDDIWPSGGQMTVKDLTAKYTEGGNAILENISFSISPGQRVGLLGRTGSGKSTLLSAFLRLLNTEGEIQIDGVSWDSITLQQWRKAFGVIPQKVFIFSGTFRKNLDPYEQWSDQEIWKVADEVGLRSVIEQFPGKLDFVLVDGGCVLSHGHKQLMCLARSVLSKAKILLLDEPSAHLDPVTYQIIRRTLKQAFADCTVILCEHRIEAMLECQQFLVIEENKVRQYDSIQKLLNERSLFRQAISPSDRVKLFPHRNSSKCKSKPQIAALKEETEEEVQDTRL

Row | SMILES | HBE2 Activity at 3 μM (%) (3 μM, with 44 nM potentiator) | HBE2 Activity at 3 μM (%) [1] | also measured
1 | Cc1cccc(C)c1-c1cc2nc(n1)NS(=N)(=O)c1cccc(c1)C(=O)N(Cc1ncc(N3CC(C)(C)C3)cn1)[C@H](CC(C)(C)C)CO2 (single isomer, unassigned) [Compound 1313] | +++ (+++ is >60+) |  | 
2 | Cc1cccc(C)c1-c1cc2nc(n1)NS(=O)(=O)c1cccc(c1)C(=O)N(Cc1cc(NC(=O)OC(C)(C)C)cc(N(C)C3CCC3)n1)[C@H](CC(C)(C)C)CO2 [Compound 1929] |  | +++ (+++ is >60+) | 
3 | Cc1cccc(C)c1-c1cc2nc(n1)NS(=O)(=O)c1cccc(c1)C(=O)N(Cc1cncc(N(C)CC(C)C)n1)[C@H](CC1(C)CCC1)CO2 [Compound 1774] |  | +++ (+++ is >60+) | 
4 | COC[C@H]1CCCCN1c1cncc(CN2C(=O)c3cccc(c3)S(=O)(=O)Nc3nc(cc(-c4c(C)cccc4C)n3)OC[C@H]2CC(C)(C)C)n1 [Compound 1539] |  |  | EC50 (with 44 nM potentiator): < 1 µM; Emax (with 44 nM potentiator): > 60%
5 | Cc1cccc(C)c1-c1cc2nc(n1)NS(=O)(=O)c1cccc(c1)C(=O)N(Cc1cncc(N(C)C3CCC3)n1)[C@H](CC1CCCCC1)CO2 [Compound 1804] |  | +++ (+++ is >60+) | 
6 | Cc1cccc(C)c1-c1cc2nc(n1)NS(=O)(=O)c1cccc(c1)C(=O)N(Cc1ncc(OC(C)C)cn1)[C@H](CC1CCC1)[C@@H](C)O2 [Compound 1565] | +++ (+++ is >60+) |  | 
7 | Cc1cccc(C)c1-c1cc2nc(n1)NS(=O)(=O)c1cccc(c1)C(=O)N(Cc1nc(N(C)C3CCC3)c(C)nc1C)[C@H](CC(C)(C)C)CO2 [Compound 1651] | +++ (+++ is >60+) |  | 
8 | Cc1cccc(C)c1-c1cc2nc(n1)NS(=O)(=O)c1cccc(c1)C(=O)N(Cc1ncc(N3CC(C)(C)C3)cn1)[C@H](CC(C)C)CO2 [Compound 1563] | +++ (+++ is >60+) |  | 
9 | Cc1cccc(C)c1-c1cc2nc(n1)NS(=O)(=O)c1cccc(c1)C(=O)N(Cc1cncc(N(C)CCOC(C)(C)C)n1)[C@H](CC(C)(C)C)CO2 [Compound 1650] | +++ (+++ is >60+) |  | 
10 | Cc1cccc(C)c1-c1cc2nc(n1)NS(=O)(=O)c1cccc(c1)C(=O)N(Cc1cnc3ccn(C)c3n1)[C@H](CC(C)(C)C)CO2 [Compound 1853] |  | +++ (+++ is >60+) | 
11 | Cc1cccc(C)c1-c1cc2nc(n1)NS(=O)(=O)c1cccc(c1)C(=O)N(Cc1cnc3cc(C(C)C)n(C)c3n1)[C@H](CC(C)C)CO2 [Compound 1834] |  | +++ (+++ is >60+) | 
12 | Cc1cccc(C)c1-c1cc2nc(n1)NS(=O)(=O)c1cccc(c1)C(=O)N(Cc1ncc(N3CCC(C)(C)CC3)cn1)[C@H](CCC1CC1)CO2 [Compound 1311, (11R)-11-(2-Cyclopropylethyl)-6-(2,6-dimethylphenyl)-12-[[5-(4,4-dimethyl-1-piperidyl)pyrimidin-2-yl]methyl]-2,2-dioxo-9-oxa-2^6-thia-3,5,12,19-tetrazatricyclo[12.3.1.14,8]nonadeca-1(18),4(19),5,7,14,16-hexaen-13-one] | +++ (+++ is >60+) |  | 
13 | Cc1cccc(C)c1-c1cc2nc(n1)NS(=N)(=O)c1cccc(c1)C(=O)N(Cc1ncc(OC(C)C)cn1)[C@H](CC(C)(C)C)CO2 (some centres unmarked) [Compound 1574] | ++ (++ is 30-60%) |  | 
14 | CCC(C)CN(C)c1cncc(CN2C(=O)c3cccc(c3)S(=O)(=O)Nc3nc(cc(-c4c(C)cccc4C)n3)OC[C@H]2CC(C)(C)C)n1 (some centres unmarked) [Compound 1727] |  | +++ (+++ is >60+) | 
15 | Cc1cccc(C)c1-c1cc2nc(n1)NS(=O)(=O)c1cccc(c1)C(=O)N(Cc1cncc(N(C)CC(C)C)n1)[C@H](CC(C)C)CO2 [Compound 1713] |  | +++ (+++ is >60+) | 
16 | Cc1cccc(C)c1-c1cc2nc(n1)NS(=O)(=O)c1cccc(c1)C(=O)N(Cc1ncc(OC(C)C)cn1)[C@H]([C@@H](C)C(C)C)CO2 (stereo in doubt) [Compound 1572] | +++ (+++ is >60+) |  | 
17 | Cc1cccc(C)c1-c1cc2nc(n1)NS(=O)(=O)c1cccc(c1)C(=O)N(Cc1nc(N(C)C3CCC3)cnc1C)[C@H](CC(C)(C)C)CO2 [Compound 1678] | +++ (+++ is >60+) |  | 
18 | Cc1cccc(C)c1-c1cc2nc(n1)NS(=O)(=O)c1cccc(c1)C(=O)N(Cc1cnc3oc(C(C)C)cc3n1)[C@H](CC(C)(C)C)CO2 [Compound 1333, (11R)-6-(2,6-Dimethylphenyl)-11-(2,2-dimethylpropyl)-12-[(6-isopropylfuro[2,3-b]pyrazin-2-yl)methyl]-2,2-dioxo-9-oxa-2λ6-thia-3,5,12,19-tetrazatricyclo[12.3.1.14,8]nonadeca-1(18),4(19),5,7,14,16-hexaen-13-one] |  | +++ (+++ is >60+) | 
19 | CCC(C)Oc1cnc(CN2C(=O)c3cccc(c3)S(=O)(=O)Nc3nc(cc(-c4c(C)cccc4C)n3)OC[C@H]2CCC2CC2)nc1 (some centres unmarked) [Compound 1598] | +++ (+++ is >60+) |  | 

Second part, led by results:

Row | HBE2 Activity at 3 μM (%) (3 μM, with 44 nM potentiator) | HBE2 Activity at 3 μM (%) [1] | SMILES | also measured
20 |  | +++ (+++ is >60+) | Cc1cccc(C)c1-c1cc2nc(n1)NS(=O)(=O)c1cccc(c1)C(=O)N(Cc1cncc(N3CCC[C@H]3C3CC3)n1)[C@H](CCC(C)(C)C)CO2 [Compound 1813] | 
21 |  | +++ (+++ is >60+) | Cc1cccc(C)c1-c1cc2nc(n1)NS(=O)(=O)c1cccc(c1)C(=O)N(Cc1cncc(N3CCC[C@H]3C(C)C)n1)[C@H](CCC(C)(C)C)CO2 [Compound 1716] | EC50 (corrector at a range of concentrations with 44 nM potentiator): < 1 µM; Emax (with 44 nM potentiator): > 60%
22 |  | +++ (+++ is >60+) | Cc1cccc(C)c1-c1cc2nc(n1)NS(=O)(=O)c1cccc(c1)C(=O)N(Cc1cncc(N(C)[C@H]3C[C@@H](F)C3)n1)[C@H](CCC1CC1)CO2 [Compound 1915] | 
23 |  | +++ (+++ is >60+) | Cc1cccc(C)c1-c1cc2nc(n1)NS(=O)(=O)c1cccc(c1)C(=O)N(Cc1cncc(N3CC[C@H]3C)n1)[C@H](COC1CC1)CO2 [Compound 1918] | 
24 |  | +++ (+++ is >60+) | Cc1cccc(C)c1-c1cc2nc(n1)NS(=O)(=O)c1cccc(c1)C(=O)N(Cc1cnc(C)c(N3CC[C@H]3C)n1)[C@H](CC(C)(C)C)CO2 [Compound 1833] | 
25 |  | +++ (+++ is >60+) | Cc1cccc(C)c1-c1cc2nc(n1)NS(=O)(=O)c1cccc(c1)C(=O)N(Cc1cncc(N(C)C3CC4(CC4)C3)n1)[C@H](CCC(C)(C)C)CO2 [Compound 1817] | 
26 |  | +++ (+++ is >60+) | Cc1cccc(C)c1-c1cc2nc(n1)NS(=O)(=O)c1cccc(c1)C(=O)N(Cc1cncc(N3CCC[C@H]4CC[C@H]43)n1)[C@H](CCC(C)C)CO2 (stereo in doubt) [Compound 1746] | 
27 |  | +++ (+++ is >60+) | Cc1cccc(C)c1-c1cc2nc(n1)NS(=O)(=O)c1cccc(c1)C(=O)N(Cc1cncc(N3CCC[C@H]3C3CC3)n1)[C@H](CC1CCCCC1)CO2 [Compound 1866] | 
28 |  | +++ (+++ is >60+) | Cc1cccc(C)c1-c1cc2nc(n1)NS(=O)(=O)c1cccc(c1)C(=O)N(Cc1cnc(C)c(N(C)C3CCC3)n1)[C@H](CC(C)(C)C)CO2 [Compound 1714] | 
29 | +++ (+++ is >60+) |  | Cc1cccc(C)c1-c1cc2nc(n1)NS(=O)(=O)c1cccc(c1)C(=O)N(Cc1cccc(N3CC[C@H]3C)n1)[C@H](CC(C)(C)C)CO2 [Compound 1551] | 
30 |  | +++ (+++ is >60+) | Cc1cccc(C)c1-c1cc2nc(n1)NS(=O)(=O)c1cccc(c1)C(=O)N(Cc1cccc(N3CCC[C@H]3C)n1)[C@H](CCC(C)(C)C)CO2 [Compound 1789] | 
31 |  | ++ (++ is 30-60%) | CCC(C)(C)C[C@@H]1COc2cc(-c3c(C)cccc3C)nc(n2)NS(=O)(=O)c2cccc(c2)C(=O)N1Cc1cncc(N(C)C2CCC2)n1 [Compound 1329, 12-[[6-[cyclobutyl(methyl)amino]pyrazin-2-yl]methyl]-11-(2,2-dimethylbutyl)-6-(2,6-dimethylphenyl)-2,2-dioxo-9-oxa-2λ^6-thia-3,5,12,19-tetrazatricyclo[12.3.1.14,8]nonadeca-1(18),4,6,8(19),14,16-hexaen-13-one] | 
32 | +++ (+++ is >60+) |  | CO[C@H]1C[C@H](CN(C)c2cncc(CN3C(=O)c4cccc(c4)S(=O)(=O)Nc4nc(cc(-c5c(C)cccc5C)n4)OC[C@H]3CC(C)(C)C)n2)C1 [Compound 1631] | 
33 |  | +++ (+++ is >60+) | COC[C@@H]1CCCN1c1cncc(CN2C(=O)c3cccc(c3)S(=O)(=O)Nc3nc(cc(-c4c(C)cccc4C)n3)OC[C@H]2CC2CCCCC2)n1 [Compound 1867] | 
34 |  | +++ (+++ is >60+) | Cc1cccc(C)c1-c1cc2nc(n1)NS(=O)(=O)c1cccc(c1)C(=O)N(Cc1cnc3cc(C(C)C)n(C)c3n1)[C@H](CCC(C)(C)C)CO2 [Compound 1826] | 
35 |  | +++ (+++ is >60+) | Cc1cccc(C)c1-c1cc2nc(n1)NS(=O)(=O)c1cccc(c1)C(=O)N(Cc1cncc(N(C)C3CCC3)n1)[C@H](COC1CC1)CO2 [Compound 1893] | 
36 |  | +++ (+++ is >60+) | Cc1cccc(C)c1-c1cc2nc(n1)NS(=O)(=O)c1cccc(c1)C(=O)N(Cc1cncc(N3[C@H](C)CC[C@@H]3C)n1)[C@H](COC(C)C)CO2 [Compound 1950] | 
37 | +++ (+++ is >60+) |  | Cc1cccc(C)c1-c1cc2nc(n1)NS(=O)(=O)c1cccc(c1)C(=O)N(Cc1cncc(N(C)C3CCC3)n1)[C@H](CC1(C)CC1)CO2 [Compound 1668] | EC50 (with 44 nM potentiator): < 1 µM; Emax (with 44 nM potentiator): > 60%
38 |  | +++ (+++ is >60+) | COC[C@@H]1CCN1c1cncc(CN2C(=O)c3cccc(c3)S(=O)(=O)Nc3nc(cc(-c4c(C)cccc4C)n3)OC[C@H]2CC2CC2)n1 [Compound 1786] | 
39 | +++ (+++ is >60+) |  | CO[C@@H]1CC[C@@H]1N(C)c1cncc(CN2C(=O)c3cccc(c3)S(=O)(=O)Nc3nc(cc(-c4c(C)cccc4C)n3)OC[C@H]2CC(C)(C)C)n1 (stereo in doubt) [Compound 1607] | 
